Target: T1, GST-Bfl-1 (Homo sapiens, UniProt Q16548)
T1 construct: lacking their C-terminal transmembrane domains (about the last 20 amino acids) (“ΔTM”); made in house; host or cells: XL-1 Blue E. coli, pGEX 4T-1
T1 sequence (Q16548 1-155 limits assumed): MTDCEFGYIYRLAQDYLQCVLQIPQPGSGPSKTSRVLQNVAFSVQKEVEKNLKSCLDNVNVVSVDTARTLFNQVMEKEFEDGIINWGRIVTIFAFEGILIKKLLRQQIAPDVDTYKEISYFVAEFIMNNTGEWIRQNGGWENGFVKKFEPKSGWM
Experiment: Bfl-1/FITC-Bid BH3 competitive fluorescence polarization assay
Assay type: binding
Conditions: primary HTS hits, MLSCN library (PubChem SIDs), Table 5B
Description: A FPA was performed to determine the binding affinity of FITC-Bid BH3 peptide to Bcl-2 proteins. […] IC50 determinations were performed using GraphPad Prism software (GraphPad, Inc., San Diego, Calif.). FPA competition assays were performed using the same procedure described above, except that 100 nM of GST-Bfl-1 protein in a volume of 45 μl was incubated with 5 μl (50 μM) test compounds in DMSO per well for 30 min prior to addition of 50 μl (5 nM) FITC-Bid BH3 peptide. The final DMSO concentration was 5% when the reactions brought to fall volume of 100 μl. Fluorescence polarization was measured after 10 min. Compounds that reduced the fluorescence polarization by 50% were considered hits.

Row | Compound | % Activity [%] | FRatio
1 | Cc1cc2c(cc1C)NC(c1c(C)n(C)n(-c3ccccc3)c1=O)C1=C(O)CC(C)(C)CC1=N2 (centres unmarked) [Compound 4265815] | 58.3 | 1.46
2 | Cc1ccc2c(c1)c(=O)c1c3n2CCN(C(=O)CCl)C3CC1 (centres unmarked) [Compound 14742276] | 72.4 | 0.88
3 | Cc1c(NC(=O)c2cc3nc(-c4ccccc4)cc(C)n3n2)c(=O)n(-c2ccccc2)n1C [Compound 844334] | 63.5 | 0.88
4 | N#C/C(C(N)=O)=c1/ccc2c(c1)N1C3=C(CCCC3)CC3CCCCC31N=2 (centres unmarked) [Compound 856266] | 74.3 | 0.62
5 | Cn1c(=N)c(S(=O)(=O)c2ccccc2)cc2c(=O)n3ccccc3nc21 [Compound 859963] | 50.4 | 1.49
6 | O=C1c2ccccc2C(=O)c2c1cccc2N1CCN(CCO)CC1 [Compound 17403435] | 56.9 | 1.3
7 | COc1ccccc1NCCC(=O)OCC(=O)NCc1ccco1 [Compound 3712399] | 85.2 | 0.95
8 | O=C(CSc1nc(O)c2ccccc2n1)c1ccc(O)c(O)c1 [Compound 4242102] | 64.2 | 0.57
9 | Cc1cc(Cl)ccc1OCC(=O)OC(C)C(=O)N(C)C (centres unmarked) [Compound 867049] | 53.3 | 0.78
10 | CC(=O)c1c(COC(=O)c2ccco2)nc2ccccc2[n+]1[O-] [Compound 863818] | 68.3 | 0.88
11 | O=C(CSc1n[nH]c(-c2ccccc2)n1)c1ccc(O)c(O)c1 [Compound 851690] | 75.1 | 0.43
12 | Cc1cc(C)nc(Nc2ccc(N3CCCC3)cc2)n1 [Compound 4256031] | 108.1 | 0.2
13 | COc1ccc2c(c1)c(=O)oc1cc(OCC(=O)N3CCc4ccccc4C3)ccc12 [Compound 14730322] | 59.7 | 0.75
14 | Cc1ccc(OCCC(=O)OCC(=O)Nc2ccc(Cl)cn2)cc1 [Compound 3713376] | 54.8 | 1.43
15 | O=C(Nc1ccc(N2CCCC2)cc1)C(c1ccccc1)c1ccccc1 [Compound 14730995] | 64.1 | 0.9
16 | Cc1ccc2c(c1C)NC(C(=O)O)C1CC=CC21 (centres unmarked) [Compound 844096] | 98.3 | 0.53
17 | CCn1ccc(C(=O)Nc2ccc(S(=O)(=O)Nc3ccccc3OC)cc2)n1 [Compound 4241115] | 82 | 0.87
18 | COCCN1CCN2C(=NC3CC(NC(=O)NC4CCCCC4)CCC32)C1 (centres unmarked) [Compound 865452] | 79.7 | 0.73
19 | CCC1=NNc2cccc3c(OC)ccc1c23 [Compound 14740154] | 83.6 | 1
20 | C=CCn1c(SCC(=O)OC)nc2sc3c(c2c1=O)CCN(C)C3 [Compound 856802] | 53.2 | 1.23
21 | Cc1ccc(CNc2ccc3c(c2)OCO3)cc1 [Compound 4257119] | 50.6 | 1.2

Row | Compound | % Activity [%] | FRatio
22 | COc1ccc2c(c1)c(=O)oc1cc(OCC(=O)N3CCC(C)CC3)ccc12 [Compound 4257486] | 104.8 | 0.49
23 | N=c1c(C(=O)NCC2CCCO2)cc2c(=O)n3ccccc3nc2n1Cc1cccnc1 (centres unmarked) [Compound 844196] | 63.4 | 0.93
24 | Cc1cc(C)c(I)c(S(=O)(=O)N2CCC(C(=O)OCC(=O)N3c4ccccc4NC(=O)C3(C)C)CC2)c1C [Compound 16952989] | 72.9 | 0.93
25 | O=C(OCC(=O)N1CCN(C(=O)c2ccco2)CC1)c1cc(-c2ccco2)nc2ccccc12 [Compound 14745657] | 73.4 | 0.97
26 | Nc1ccc(N2CCN(C(=O)c3cccs3)CC2)cc1 [Compound 14726238] | 57.8 | 0.87
27 | O=C1c2ccccc2C(=O)N1CC#CCN1CCN(C2CCCCC2)CC1 [Compound 856035] | 56.3 | 0.7
28 | Cc1ccc(O)c(/N=C/C2=C(O)c3ccccc3C2=O)c1 [Compound 7974116] | 56 | 0.92
29 | Cc1ccc(-n2nc3ccc(NC(=O)c4ccc5c(c4)OCO5)cc3n2)cc1 [Compound 14732083] | 69.5 | 0.83
30 | CC(=O)C1=C(C)OC(N)=C(C#N)C1c1ccco1 (centres unmarked) [Compound 857779] | 65.4 | 1.13
31 | Cc1cccn2c(=O)c3cc(C(=O)NCC4CCCO4)c(=N)n(Cc4cccnc4)c3nc12 (centres unmarked) [Compound 849581] | 60.6 | 0.89
32 | COc1ccccc1N1CCN(C(=O)c2cc3c(s2)CCC3)CC1 [Compound 14746697] | 74.1 | 0.9
33 | Cc1cnnn1-c1ccc(C(=O)CCl)cc1 [Compound 14744853] | 52.9 | 0.82
34 | CN1CCC2=C(C1)SC1C2C(NCc2ccco2)=Nc2nnnn21 (centres unmarked) [Compound 864825] | 96.4 | 1.26
35 | CCOC(=O)C1=C(C)S/C(=C\N(C)C)C1=O [Compound 7972859] | 68.4 | 0.91
36 | O=C1NC(=O)[C@]2(Cc3ccccc3N3CCN(c4ccccc4)CC32)C(=O)N1c1ccccc1 (some centres unmarked) [Compound 865821] | 53.1 | 1.21
37 | CC(=O)C1=C(O)C(=O)N(Cc2ccccc2)C1c1ccco1 (centres unmarked) [Compound 851207] | 52.6 | 0.52
38 | COCc1cc(C2SCC(=O)Nc3c2c(O)nn3C(C)C)ccc1OC (centres unmarked) [Compound 4258907] | 67.1 | 1.2
39 | C=CCN1C(=O)/C(=C2/C(=O)N(CC(=O)O)c3ccccc32)S/C1=N\c1nccs1 [Compound 17401584] | 131.8 | 0.83
40 | CCc1ccc(NC(=O)c2noc3c2CCC3)cc1 [Compound 14733222] | 68.1 | 0.73
41 | Cc1c(CN(C)C)c2c(n1Cc1ccccc1)C(=O)c1ccc(Br)cc1-2 [Compound 14742663] | 78.5 | 0.61
42 | CC(=O)c1c(CC(=O)O)nn(-c2nc3ccccc3s2)c1O [Compound 14746319] | 69 | 0.7

Row | Compound | % Activity [%] | FRatio
43 | CCOC(=O)N1CCN(c2cc(NCCC(=O)O)c3c4c(onc24)-c2ccccc2C3=O)CC1 [Compound 4252106] | 78.1 | 0.86
44 | O=C(COC(=O)c1cncc(Br)c1)NCc1ccco1 [Compound 3715512] | 55.4 | 0.95
45 | Cc1ccc(-c2nnc(S)n2/N=C/C=C/c2ccccc2[N+](=O)[O-])cc1 [Compound 14729394] | 55.5 | 0.81
46 | Oc1ccc(C2=Nn3c(nnc3-c3ccco3)SC2)cc1O [Compound 17401638] | 56.6 | 0.82
47 | Cc1ccc(-[n+]2c(-c3ccc(Br)cc3)cn3c2CCc2ccc4cccnc4c2-3)cc1 [Compound 14745910] | 56.2 | 0.81
48 | Cc1cc(C)c(NC(=O)CN(c2ccccc2)S(=O)(=O)N(C)C)c(C)c1 [Compound 14746364] | 90.5 | 0.65
49 | Cn1c(SCC(=O)Nc2ccc3nc(SCC(=O)N4CCCC4)sc3c2)nnc1-c1ccc(N)cc1 [Compound 17386645] | 53.9 | 0.79
50 | O=C(COC(=O)CC12CC3CC(CC(C3)C1)C2)Nc1ncc(Cl)cc1Cl [Compound 14744137] | 52 | 1.16
51 | O=C(NCCN1CCCCCC1)C1CCC(CNS(=O)(=O)c2cccc3cccnc23)CC1 (centres unmarked) [Compound 7969436] | 51.8 | 0.97
52 | Cc1ccc(S(=O)(=O)NC(=O)c2cc(C)n(CCCn3ccnc3)c2C)cc1 [Compound 3173759] | 61.5 | 0.99
53 | c1ccc(CSc2nnc(-c3ccco3)c(-c3ccco3)n2)cc1 [Compound 4260465] | 93.8 | 0.72
54 | COc1ccc2c(c1)c(=O)oc1cc(OCC(=O)NC3CCCCC3)ccc12 [Compound 14730237] | 78.9 | 0.91
55 | Cc1ccc(C)n1C(Cc1ccccc1)C(=O)O (centres unmarked) [Compound 852148] | 82.9 | 1.37
56 | O=S(=O)(c1ccccc1)N(CC(O)CN1CCCCC1)c1ccccc1 (centres unmarked) [Compound 859970] | 53.9 | 0.98
57 | c1coc(C2Nc3cccc4cccc(c34)N2)c1 [Compound 844697] | 78.1 | 1.08
58 | COc1cccc(N2CCN(Cc3ccsc3)CC2)c1 [Compound 14746122] | 56.1 | 0.85
59 | COc1ccc(OC)c(N2C(=O)[C@@H]3C(c4ccccc4Cl)=NO[C@@H]3C2=O)c1 [Compound 864036] | 68.5 | 0.89
60 | Cc1cc(N)ccc1N1CCCC1 [Compound 14744983] | 86.5 | 0.71
61 | COc1cc2c(C#N)c(N3CCN(C)CC3)nc(N)c2c(N)n1 [Compound 14746488] | 51.4 | 0.92

Reference: patent publication US20090118135A1, “METHODS AND COMPOUNDS FOR REGULATING APOPTOSIS” (The Burnham Institute, priority 2007, published 2009)
